The target of test [1] is Cell division cycle 7-related protein kinase (Homo sapiens, UniProt O00311).
Test [2] deals with Dual specificity protein kinase CLK2 (Homo sapiens, UniProt P49760).
Test [3] deals with Dual specificity protein kinase CLK4 (Homo sapiens, UniProt Q9HAZ1).
Test [4] has as its target Epidermal growth factor receptor (Homo sapiens, UniProt P00533).
Test [5] addresses Glycogen synthase kinase-3 beta (Homo sapiens, UniProt P49841).
In test [6] the target is Mitogen-activated protein kinase 14 (Homo sapiens, UniProt Q16539).
The target of test [7] is MAP kinase-activated protein kinase 3 (Homo sapiens, UniProt Q16644).
The target in test [8] is Membrane-associated progesterone receptor component 1 (Homo sapiens, UniProt O00264).
The target of test [9] is Proto-oncogene tyrosine-protein kinase receptor Ret (Homo sapiens, UniProt P07949).
Test [10] concerns the target Dual specificity testis-specific protein kinase 1 (Homo sapiens, UniProt Q15569).
The target in test [11] is DNA topoisomerase 2-alpha (Homo sapiens, UniProt P11388).
The target in test [12] is T1, Isoleucine--tRNA ligase, mitochondrial (Homo sapiens, UniProt Q9NSE4).
T1 sequence (Q9NSE4 whole entry): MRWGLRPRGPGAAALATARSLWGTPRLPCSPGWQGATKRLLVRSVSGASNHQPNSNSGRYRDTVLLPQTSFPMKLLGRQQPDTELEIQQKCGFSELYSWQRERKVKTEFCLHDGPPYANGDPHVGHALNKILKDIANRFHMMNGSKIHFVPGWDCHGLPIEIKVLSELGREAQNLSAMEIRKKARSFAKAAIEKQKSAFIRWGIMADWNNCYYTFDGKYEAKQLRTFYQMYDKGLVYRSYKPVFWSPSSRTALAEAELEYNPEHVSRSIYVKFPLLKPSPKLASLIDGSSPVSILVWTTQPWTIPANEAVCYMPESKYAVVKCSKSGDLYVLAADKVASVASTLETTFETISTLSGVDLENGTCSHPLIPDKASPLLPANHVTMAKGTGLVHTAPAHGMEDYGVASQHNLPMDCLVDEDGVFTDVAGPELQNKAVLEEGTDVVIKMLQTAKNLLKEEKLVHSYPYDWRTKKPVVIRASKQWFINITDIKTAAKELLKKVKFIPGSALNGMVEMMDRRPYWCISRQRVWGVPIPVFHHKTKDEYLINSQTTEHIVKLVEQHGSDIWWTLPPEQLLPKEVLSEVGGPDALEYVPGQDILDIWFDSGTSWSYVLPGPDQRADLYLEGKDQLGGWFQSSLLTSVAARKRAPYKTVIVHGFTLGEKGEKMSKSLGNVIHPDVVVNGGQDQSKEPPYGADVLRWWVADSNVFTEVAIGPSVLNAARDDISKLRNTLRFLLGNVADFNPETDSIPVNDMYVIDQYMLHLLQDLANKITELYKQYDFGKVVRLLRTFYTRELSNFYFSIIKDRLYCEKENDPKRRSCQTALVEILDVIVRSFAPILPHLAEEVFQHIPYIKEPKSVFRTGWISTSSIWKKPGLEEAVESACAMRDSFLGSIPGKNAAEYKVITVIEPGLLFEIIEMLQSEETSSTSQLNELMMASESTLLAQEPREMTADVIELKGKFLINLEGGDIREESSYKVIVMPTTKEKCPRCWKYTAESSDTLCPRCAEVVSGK

The target of test [13] is Phosphatidylethanolamine-binding protein 1 (Homo sapiens, UniProt P30086).
For test [14], the target named is Serine/threonine-protein kinase ATR (Homo sapiens, UniProt Q13535).
Test [15] addresses T2, Cyclin-dependent kinase-like 5 (Homo sapiens, UniProt O76039).
T2 sequence (O76039 whole entry): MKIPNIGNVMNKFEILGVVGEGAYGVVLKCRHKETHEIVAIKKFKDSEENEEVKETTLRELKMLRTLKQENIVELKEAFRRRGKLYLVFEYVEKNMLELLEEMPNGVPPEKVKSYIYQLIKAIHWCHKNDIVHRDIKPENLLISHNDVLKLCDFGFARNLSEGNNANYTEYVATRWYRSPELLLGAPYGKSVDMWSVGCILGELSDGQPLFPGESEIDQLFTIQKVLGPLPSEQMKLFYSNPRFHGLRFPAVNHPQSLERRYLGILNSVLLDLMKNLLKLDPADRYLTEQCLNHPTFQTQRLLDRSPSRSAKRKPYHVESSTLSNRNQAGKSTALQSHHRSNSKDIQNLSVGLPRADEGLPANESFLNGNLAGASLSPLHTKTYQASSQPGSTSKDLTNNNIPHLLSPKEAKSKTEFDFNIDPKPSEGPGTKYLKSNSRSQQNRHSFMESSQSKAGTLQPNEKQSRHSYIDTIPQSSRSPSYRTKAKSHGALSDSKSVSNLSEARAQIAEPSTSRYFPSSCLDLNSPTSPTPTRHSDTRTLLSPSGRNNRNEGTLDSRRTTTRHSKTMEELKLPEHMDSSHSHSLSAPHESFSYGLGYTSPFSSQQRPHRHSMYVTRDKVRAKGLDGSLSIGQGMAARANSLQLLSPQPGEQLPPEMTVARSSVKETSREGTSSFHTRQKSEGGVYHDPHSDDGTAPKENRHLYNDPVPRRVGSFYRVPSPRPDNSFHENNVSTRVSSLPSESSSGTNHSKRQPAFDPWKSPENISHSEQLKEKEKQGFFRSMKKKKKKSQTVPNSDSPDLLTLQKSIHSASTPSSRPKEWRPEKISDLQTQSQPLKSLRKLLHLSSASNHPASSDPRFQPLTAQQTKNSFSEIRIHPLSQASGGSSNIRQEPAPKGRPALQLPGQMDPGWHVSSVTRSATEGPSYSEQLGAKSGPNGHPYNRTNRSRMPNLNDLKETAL

The next test has as its target T3, UMP-CMP kinase (Homo sapiens, UniProt P30085).
T3 sequence (P30085 whole entry): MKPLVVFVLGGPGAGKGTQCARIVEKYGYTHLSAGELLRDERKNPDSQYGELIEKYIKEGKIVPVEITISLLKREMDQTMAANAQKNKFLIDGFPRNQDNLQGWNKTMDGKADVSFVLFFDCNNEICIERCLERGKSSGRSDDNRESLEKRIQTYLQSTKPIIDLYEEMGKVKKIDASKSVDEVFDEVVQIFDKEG

The target of test [16] is Serine/threonine-protein kinase Nek7 (Homo sapiens, UniProt Q8TDX7).

SMILES strings stand for the structures. pKd: −log10 of the molar value. Calls of active or inactive are those of the source.
Further: in the data inactive means no Kd found up to 30 µM.

Serine/threonine-protein kinase ATR, sequence (Q13535 whole entry): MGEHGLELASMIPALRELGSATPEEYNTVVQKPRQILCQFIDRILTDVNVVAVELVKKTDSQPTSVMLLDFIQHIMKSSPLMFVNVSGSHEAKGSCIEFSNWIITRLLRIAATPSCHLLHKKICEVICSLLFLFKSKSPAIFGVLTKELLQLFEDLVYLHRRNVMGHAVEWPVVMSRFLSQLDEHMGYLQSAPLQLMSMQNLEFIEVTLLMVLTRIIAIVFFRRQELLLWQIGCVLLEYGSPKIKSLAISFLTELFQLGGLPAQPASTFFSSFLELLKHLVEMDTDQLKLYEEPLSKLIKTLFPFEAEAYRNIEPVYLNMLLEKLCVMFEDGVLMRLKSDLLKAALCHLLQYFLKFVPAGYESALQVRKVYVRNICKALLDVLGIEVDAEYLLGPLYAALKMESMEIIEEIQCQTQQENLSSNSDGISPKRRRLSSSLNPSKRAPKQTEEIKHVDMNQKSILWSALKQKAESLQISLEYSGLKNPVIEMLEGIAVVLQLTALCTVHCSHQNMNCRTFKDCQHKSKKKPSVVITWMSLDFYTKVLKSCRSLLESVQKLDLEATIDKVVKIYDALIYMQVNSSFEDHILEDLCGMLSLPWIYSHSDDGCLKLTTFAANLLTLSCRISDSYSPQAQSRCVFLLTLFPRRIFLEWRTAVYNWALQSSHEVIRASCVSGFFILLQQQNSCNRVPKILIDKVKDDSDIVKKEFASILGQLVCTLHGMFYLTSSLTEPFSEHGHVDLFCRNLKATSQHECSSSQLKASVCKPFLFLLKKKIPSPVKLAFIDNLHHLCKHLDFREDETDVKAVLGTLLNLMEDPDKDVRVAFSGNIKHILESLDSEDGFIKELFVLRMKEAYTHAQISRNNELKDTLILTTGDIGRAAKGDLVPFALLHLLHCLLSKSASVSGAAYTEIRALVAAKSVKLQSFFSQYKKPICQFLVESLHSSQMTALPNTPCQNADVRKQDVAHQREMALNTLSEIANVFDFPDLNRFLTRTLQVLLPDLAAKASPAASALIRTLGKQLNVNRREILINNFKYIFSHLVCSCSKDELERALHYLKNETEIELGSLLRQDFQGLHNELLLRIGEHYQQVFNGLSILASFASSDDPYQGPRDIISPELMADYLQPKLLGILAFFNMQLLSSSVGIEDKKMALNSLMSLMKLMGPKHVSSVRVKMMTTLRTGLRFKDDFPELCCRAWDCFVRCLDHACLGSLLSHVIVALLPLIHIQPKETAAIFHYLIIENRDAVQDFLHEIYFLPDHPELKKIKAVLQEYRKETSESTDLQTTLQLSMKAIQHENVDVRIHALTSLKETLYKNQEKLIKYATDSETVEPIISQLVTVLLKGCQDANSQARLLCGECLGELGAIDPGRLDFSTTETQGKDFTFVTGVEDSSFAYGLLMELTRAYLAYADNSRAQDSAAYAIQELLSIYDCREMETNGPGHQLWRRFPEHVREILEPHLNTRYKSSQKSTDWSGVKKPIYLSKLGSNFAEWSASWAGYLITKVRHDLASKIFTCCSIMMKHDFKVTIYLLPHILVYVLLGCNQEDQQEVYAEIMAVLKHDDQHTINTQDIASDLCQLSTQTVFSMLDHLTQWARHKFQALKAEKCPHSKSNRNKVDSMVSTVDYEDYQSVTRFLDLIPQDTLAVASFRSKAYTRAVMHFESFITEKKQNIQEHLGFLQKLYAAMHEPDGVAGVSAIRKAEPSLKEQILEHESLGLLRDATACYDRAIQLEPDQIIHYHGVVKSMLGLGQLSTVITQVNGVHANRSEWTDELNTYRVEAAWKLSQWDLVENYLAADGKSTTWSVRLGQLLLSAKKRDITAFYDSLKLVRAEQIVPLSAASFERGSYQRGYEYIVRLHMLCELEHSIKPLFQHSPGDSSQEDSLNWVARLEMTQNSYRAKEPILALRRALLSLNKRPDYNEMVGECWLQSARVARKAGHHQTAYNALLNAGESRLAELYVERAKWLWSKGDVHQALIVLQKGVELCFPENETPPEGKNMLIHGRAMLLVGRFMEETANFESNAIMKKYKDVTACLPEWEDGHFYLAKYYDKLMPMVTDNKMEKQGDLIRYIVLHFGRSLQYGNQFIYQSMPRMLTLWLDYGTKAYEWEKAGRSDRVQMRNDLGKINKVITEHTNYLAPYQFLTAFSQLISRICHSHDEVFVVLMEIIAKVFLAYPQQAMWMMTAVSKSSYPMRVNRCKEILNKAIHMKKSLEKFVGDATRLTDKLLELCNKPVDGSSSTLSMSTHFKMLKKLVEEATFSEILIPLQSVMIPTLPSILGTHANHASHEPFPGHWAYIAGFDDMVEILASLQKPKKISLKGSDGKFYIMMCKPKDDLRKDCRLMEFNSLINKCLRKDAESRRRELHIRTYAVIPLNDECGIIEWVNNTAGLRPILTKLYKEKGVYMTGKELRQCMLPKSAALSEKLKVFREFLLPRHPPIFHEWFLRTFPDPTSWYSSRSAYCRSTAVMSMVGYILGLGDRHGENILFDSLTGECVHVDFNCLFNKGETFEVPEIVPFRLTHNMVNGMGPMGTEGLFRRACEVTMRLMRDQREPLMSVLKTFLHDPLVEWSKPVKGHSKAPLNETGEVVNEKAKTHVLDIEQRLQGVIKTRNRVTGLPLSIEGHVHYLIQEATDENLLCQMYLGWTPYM
Mitogen-activated protein kinase 14, sequence (Q16539 whole entry): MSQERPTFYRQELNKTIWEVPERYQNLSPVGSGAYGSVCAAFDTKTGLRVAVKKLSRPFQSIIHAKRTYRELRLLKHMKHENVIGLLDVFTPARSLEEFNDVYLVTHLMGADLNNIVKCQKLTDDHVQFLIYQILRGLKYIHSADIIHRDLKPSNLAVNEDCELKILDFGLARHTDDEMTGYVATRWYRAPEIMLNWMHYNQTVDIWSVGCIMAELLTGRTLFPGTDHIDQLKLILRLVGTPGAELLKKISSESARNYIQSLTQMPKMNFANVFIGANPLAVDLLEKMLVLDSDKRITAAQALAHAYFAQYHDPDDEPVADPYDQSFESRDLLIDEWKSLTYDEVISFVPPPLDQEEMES
DNA topoisomerase 2-alpha, sequence (P11388 whole entry): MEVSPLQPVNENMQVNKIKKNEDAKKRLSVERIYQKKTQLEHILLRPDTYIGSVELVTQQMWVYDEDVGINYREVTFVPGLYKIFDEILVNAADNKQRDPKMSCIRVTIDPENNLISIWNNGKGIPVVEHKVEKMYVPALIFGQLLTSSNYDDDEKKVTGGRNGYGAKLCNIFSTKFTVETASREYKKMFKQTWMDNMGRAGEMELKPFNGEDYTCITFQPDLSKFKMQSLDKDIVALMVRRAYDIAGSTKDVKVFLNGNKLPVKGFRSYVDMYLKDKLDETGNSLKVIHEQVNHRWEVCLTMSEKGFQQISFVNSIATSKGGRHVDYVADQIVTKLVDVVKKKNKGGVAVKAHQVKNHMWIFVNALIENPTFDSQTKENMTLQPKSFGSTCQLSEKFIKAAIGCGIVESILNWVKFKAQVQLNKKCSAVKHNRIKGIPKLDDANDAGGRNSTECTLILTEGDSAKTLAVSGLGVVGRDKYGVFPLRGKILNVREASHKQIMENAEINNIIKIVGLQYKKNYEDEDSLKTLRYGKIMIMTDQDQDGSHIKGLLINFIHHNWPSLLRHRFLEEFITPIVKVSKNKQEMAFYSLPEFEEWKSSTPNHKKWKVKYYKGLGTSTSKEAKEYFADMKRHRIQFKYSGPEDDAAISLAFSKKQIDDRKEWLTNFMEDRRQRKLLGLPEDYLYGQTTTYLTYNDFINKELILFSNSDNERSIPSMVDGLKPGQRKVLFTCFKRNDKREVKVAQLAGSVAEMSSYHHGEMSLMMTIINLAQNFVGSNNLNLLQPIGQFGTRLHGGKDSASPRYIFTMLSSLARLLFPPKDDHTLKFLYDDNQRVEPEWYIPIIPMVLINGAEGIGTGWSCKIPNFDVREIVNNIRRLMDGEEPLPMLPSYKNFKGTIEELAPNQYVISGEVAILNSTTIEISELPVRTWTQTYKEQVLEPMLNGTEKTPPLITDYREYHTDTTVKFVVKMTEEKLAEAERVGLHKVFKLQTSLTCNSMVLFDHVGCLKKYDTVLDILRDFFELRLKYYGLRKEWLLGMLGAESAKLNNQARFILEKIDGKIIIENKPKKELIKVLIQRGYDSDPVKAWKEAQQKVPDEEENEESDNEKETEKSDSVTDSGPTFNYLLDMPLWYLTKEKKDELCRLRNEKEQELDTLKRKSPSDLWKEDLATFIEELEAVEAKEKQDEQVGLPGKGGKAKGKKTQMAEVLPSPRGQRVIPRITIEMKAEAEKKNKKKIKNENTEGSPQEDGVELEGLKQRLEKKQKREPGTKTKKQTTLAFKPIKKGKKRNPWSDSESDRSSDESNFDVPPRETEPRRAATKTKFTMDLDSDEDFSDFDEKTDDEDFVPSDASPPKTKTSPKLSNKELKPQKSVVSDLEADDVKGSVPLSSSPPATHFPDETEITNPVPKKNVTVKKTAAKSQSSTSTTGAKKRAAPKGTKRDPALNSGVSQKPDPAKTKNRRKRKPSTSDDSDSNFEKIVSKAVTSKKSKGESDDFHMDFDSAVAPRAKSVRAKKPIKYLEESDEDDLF
MAP kinase-activated protein kinase 3, sequence (Q16644 whole entry): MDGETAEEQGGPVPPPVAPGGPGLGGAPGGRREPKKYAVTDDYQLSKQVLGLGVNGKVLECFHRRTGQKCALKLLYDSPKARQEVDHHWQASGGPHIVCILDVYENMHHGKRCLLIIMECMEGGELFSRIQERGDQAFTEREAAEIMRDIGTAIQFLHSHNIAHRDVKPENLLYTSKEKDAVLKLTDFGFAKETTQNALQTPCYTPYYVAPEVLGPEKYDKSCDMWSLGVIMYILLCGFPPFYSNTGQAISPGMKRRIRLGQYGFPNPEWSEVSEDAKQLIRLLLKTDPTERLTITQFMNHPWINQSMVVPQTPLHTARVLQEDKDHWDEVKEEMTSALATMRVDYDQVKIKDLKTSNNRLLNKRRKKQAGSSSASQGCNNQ
Phosphatidylethanolamine-binding protein 1, sequence (P30086 whole entry): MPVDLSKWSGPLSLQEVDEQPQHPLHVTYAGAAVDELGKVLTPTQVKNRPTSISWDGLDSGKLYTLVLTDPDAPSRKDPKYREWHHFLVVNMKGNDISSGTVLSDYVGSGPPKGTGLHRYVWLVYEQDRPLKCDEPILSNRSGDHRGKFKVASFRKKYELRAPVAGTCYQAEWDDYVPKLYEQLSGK

Turning to `FC(F)(F)c1ccc(CNc2ccc(Cc3c[nH]c4ncc(Cl)cc34)cn2)cn1` [PEXIDARTINIB], the Kd in [1], in [2], in [3], in [4], in [5] and in test [6] was > 30 µM (inactive) in each case. For the same molecule, the Kd in test [7], in [8], in test [9], in test [10] and in [11] was > 30 µM (inactive) in each case.
Regarding `COc1cc2ncnc3c2cc1OCCCCCN(C)Cc1ccc(Br)cc1N3` [JNJ-26483327], the Kd (usually the concentration at which binding is half-saturated) in test [2] is > 30 µM (inactive); in test [4] it was 0.602 µM (active); in test [5] it was > 30 µM (inactive); in test [12] it was > 30 µM (inactive); in [6] it was > 30 µM (inactive); in test [7], > 30 µM (inactive). The Kd in test [13] is > 30 µM (inactive); in test [9], 2.42 µM (active); in test [10] it was > 30 µM (inactive); in test [11], > 30 µM (inactive).
Regarding `CCN(CCCOc1ccc2c(Nc3cc(CC(=O)Nc4cccc(F)c4)n[nH]3)ncnc2c1)CCOP(=O)(O)O` [BARASERTIB], the Kd in test [14], in [15], in [12], in test [7], in test [13] and in test [8] was > 30 µM (inactive) in each case. For the same molecule, the Kd in test [10] and in test [11] was > 30 µM (inactive) each time.
In the case of `CN(C)C/C=C/C(=O)Nc1cc2c(Nc3ccc(F)c(Cl)c3)ncnc2cc1O[C@H]1CCOC1` [AFATINIB], the Kd in test [1], in [7], in test [13], in test [8] and in [11] was > 30 µM (inactive) each time.
`O=S(=O)(c1cccc2c(O)nccc12)N1CCCNCC1` [HYDROXYFASUDIL]: the Kd (in test [14]; in test [15]; in test [2]; in test [3]; at UMP-CMP kinase; in test [5]) was > 30 µM (inactive) throughout. Besides, the Kd in [16], in test [13], in test [8], in test [9] and in [11] was > 30 µM (inactive) in each case.
Regarding `CCN1CCN(Cc2ccc(Nc3ncc(F)c(-c4cc(F)c5nc(C)n(C(C)C)c5c4)n3)nc2)CC1` [ABEMACICLIB], the Kd in test [14], in [1], in test [15], in test [4], in test [12] and in test [6] was > 30 µM (inactive) throughout. For the same molecule, the Kd in test [7], in test [9], in test [10] and in test [11] was > 30 µM (inactive) each time. The pKd (usually the negative decadic logarithm of the Kd, by convention in mol/L) in [3] was 7.89.
As for `Cc1c(Cn2c(C)nc3c(C(=O)O)cc(N4CCOCC4)cc32)cccc1C(F)(F)F` [GSK-2636771], the Kd (in [14]; in [1]; in test [2]; in test [3]; on UMP-CMP kinase; in [4]) was > 30 µM (inactive) in each case. Besides, the Kd in test [5], in test [12], in test [6], in [16], in test [8] and in [9] was > 30 µM (inactive) throughout. The Kd in test [10] and in test [11] was > 30 µM (inactive) each time.
Turning to `COc1cc2ncnc(Nc3ccc(O)cc3)c2cc1OC` [WHI-P131], the Kd in test [14] is > 30 µM (inactive); in test [15], > 30 µM (inactive); in [2], > 30 µM (inactive); in [3], > 30 µM (inactive); on UMP-CMP kinase, > 30 µM (inactive); in test [4], 1.16 µM (active). Also, the Kd was > 30 µM (inactive) in [5]; > 30 µM (inactive) in test [6]; > 30 µM (inactive) in test [16]; > 30 µM (inactive) in test [13]; > 30 µM (inactive) in [8]; 21.9 µM (active) in test [9]. The Kd in test [10] and in [11] was > 30 µM (inactive) each time.
As to `Cn1cc(-c2[nH]c3cc(NC(=O)[C@H](N)C4CCCCC4)cc4c3c2C=NNC4=O)cn1`, the Kd (in [14]; in test [1]; in test [15]; in test [2]; in [3]; at UMP-CMP kinase) was > 30 µM (inactive) each time. Also, the Kd in test [5], in [12], in [6], in [16], in test [13] and in [8] was > 30 µM (inactive) each time. For the same molecule, the Kd was 0.01 µM (active) in test [9], > 30 µM (inactive) in test [10] and > 30 µM (inactive) in test [11].
For the molecule `C[C@@]1(C(=O)Nc2ccc(F)nc2)CCCN1c1nc(Nc2cc(C3CC3)n[nH]2)c2cccn2n1` [BMS-754807], the Kd in test [14], in [12], in test [7], in [13] and in test [11] was > 30 µM (inactive) in each case.

The record behind these values is ChEMBL document CHEMBL3991601, “The target landscape of clinical kinase drugs” (Science, 2017).
